The source made the active and inactive calls. The calls are words filed in the database; no cut-off is given here.
What was measured:
HK-2 = assay: Cytotoxicity against human HK2 cells assessed as cell viability incubated for 24 hrs by MTT assay; format: cell-based; conditions: HK-2, 24 h
L02 = assay: Cytotoxicity against human L02 cells assessed as cell viability incubated for 24 hrs by MTT assay; format: cell-based; conditions: L02, 24 h
HCT-116 = assay: Antiproliferative activity against human HCT-116 cells assessed as reduction in cell viability incubated for 24 hrs by MTT assay; format: functional, cell-based; conditions: HCT-116, 24 h
[1] = Inhibition of TrxR (unknown origin) in presence of NADPH by Ellman's method; design: species or system Homo sapiens
MCF7 = assay: Antiproliferative activity against human MCF7 cells assessed as reduction in cell viability incubated for 24 hrs by MTT assay; format: functional, cell-based; conditions: MCF7, 24 h
[2] = Inhibition of TrxR in human HT-29 cells incubated for 90 mins in presence of insulin, NADPH and Trx by DTNB reagent based assay; format: cell-based
HepG2 = assay: Antiproliferative activity against human HepG2 cells assessed as reduction in cell viability incubated for 24 hrs by MTT assay; format: functional, cell-based; conditions: HepG2, 24 h
[3] = target: T1, Thioredoxin (Homo sapiens) (UniProt P10599); assay: Inhibition of Trx in human HT-29 cells incubated for 24 hrs in presence of insulin, NADPH and DTT; format: cell-based
T1 sequence (whole entry): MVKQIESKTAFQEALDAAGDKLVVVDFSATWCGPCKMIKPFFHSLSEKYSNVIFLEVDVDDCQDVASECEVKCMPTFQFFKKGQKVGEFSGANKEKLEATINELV

[4] = Inhibition of TrxR in human HT-29 cells incubated for 60 mins in presence of insulin, NADPH and Trx by DTNB reagent based assay; format: cell-based
HT-29 [5] = assay: Antiproliferative activity against human HT-29 cells assessed as reduction in cell viability incubated for 24 hrs by MTT assay; format: functional, cell-based; conditions: HT-29, 24 h
[6] = target: T2, Glutathione reductase, mitochondrial (Homo sapiens) (UniProt P00390); assay: Inhibition of GR in human HT-29 cells incubated for 24 hrs in presence of GSSG and NADPH; format: cell-based
T2 sequence (whole entry): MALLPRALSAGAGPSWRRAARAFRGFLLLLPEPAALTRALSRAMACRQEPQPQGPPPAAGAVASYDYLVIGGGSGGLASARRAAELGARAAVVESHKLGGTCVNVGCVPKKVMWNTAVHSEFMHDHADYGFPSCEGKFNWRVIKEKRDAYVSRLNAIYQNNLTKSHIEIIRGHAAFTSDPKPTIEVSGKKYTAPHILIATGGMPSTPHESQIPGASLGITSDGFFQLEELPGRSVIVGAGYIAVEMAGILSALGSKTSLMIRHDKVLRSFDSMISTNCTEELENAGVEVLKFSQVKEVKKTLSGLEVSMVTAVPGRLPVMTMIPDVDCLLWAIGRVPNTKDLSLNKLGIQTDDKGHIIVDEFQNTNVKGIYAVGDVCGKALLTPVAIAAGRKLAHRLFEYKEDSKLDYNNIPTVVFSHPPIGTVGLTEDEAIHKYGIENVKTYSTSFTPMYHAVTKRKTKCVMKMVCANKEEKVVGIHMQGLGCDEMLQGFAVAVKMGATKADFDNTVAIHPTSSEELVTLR

HT-29 [7] = assay: Inhibition of TrxR in human HT-29 cells incubated for 24 hrs in presence of insulin, NADPH and Trx by DTNB reagent based assay; format: cell-based
[8] = Inhibition of TrxR in human HT-29 cells incubated for 30 mins in presence of insulin, NADPH and Trx by DTNB reagent based assay; format: cell-based
HT-29 [9] = assay: Inhibition of GPx in human HT-29 cells incubated for 24 hrs in presence of GSH, NADPH and GR measured at 10 secs interval for 4 mins; format: cell-based; conditions: time 1444.0 min
[10] = Inhibition of Escherichia coli Trx incubated for 1.5 hrs in presence of DTT and insulin
[11] = Covalent inhibition of TrxR (unknown origin) assessed as covalent bond formation incubated up to 30 mins in presence of NADPH by Ellman's method; design: species or system Homo sapiens

## CC(=O)O[C@H]1C=C([C@H](C)[C@H]2CC(C)=C(C)C(=O)O2)[C@@]2(C)CC[C@H]3[C@@H](C[C@H]4O[C@]45[C@@H](O)C=CC(=O)[C@]35C)[C@]12O
HK-2
  IC50: 6.41 µM
L02
  IC50: 8.21 µM
HCT-116
  IC50: 2.37 µM
[1]
  IC50: 2.64 µM
MCF7
  IC50: 6.32 µM
[2]
  IC50: 2.64 µM
HepG2
  IC50: 2.85 µM
[3]
  inhibition: Active
[4]
  IC50: 3.35 µM
HT-29 [5]
  IC50: 2.48 µM
[6]
  inhibition: Active
HT-29 [7]
  inhibition: Active
[8]
  IC50: 4.92 µM
HT-29 [9]
  inhibition: Active
[10]
  IC50: > 2.5 µM
[11]
  Ki: 9.12 µM

## C=CC(=O)O[C@H]1C=CC(=O)[C@]2(C)[C@H]3CC[C@]4(C)C([C@H](C)[C@H]5CC(C)=C(C)C(=O)O5)=C[C@H](OC(C)=O)[C@@]4(O)[C@@H]3C[C@H]3O[C@]132
HCT-116
  IC50: 0.33 µM
MCF7
  IC50: 1.06 µM
[2]
  IC50: 2.06 µM
HepG2
  IC50: 0.52 µM
[4]
  IC50: 2.85 µM
HT-29 [5]
  IC50: 0.78 µM
[8]
  IC50: 3.91 µM

## O=c1c(O)c(-c2cc(O)c(O)c(O)c2)oc2cc(O)cc(O)c12 [MYRICETIN]
HK-2
  IC50: > 20 µM
L02
  IC50: > 20 µM
HCT-116
  IC50: > 20 µM
MCF7
  IC50: > 20 µM
[2]
  IC50: 0.65 µM
HepG2
  IC50: > 20 µM
[4]
  IC50: 0.72 µM
HT-29 [5]
  IC50: > 20 µM
[8]
  IC50: 0.93 µM

## CC(=O)O[C@H]1C=C([C@H](C)[C@H]2CC(C)=C(C)C(=O)O2)[C@@]2(C)CC[C@H]3[C@@H](C[C@H]4O[C@]45[C@@H](OC(=O)CCC(=O)N(C)C)C=CC(=O)[C@]35C)[C@]12O
[2]
  IC50: 2.15 µM
[4]
  IC50: 2.91 µM
[8]
  IC50: 3.81 µM

## CC(=O)O[C@H]1C=C([C@H](C)[C@H]2CC(C)=C(C)C(=O)O2)[C@@]2(C)CC[C@H]3[C@@H](C[C@H]4O[C@]45[C@@H](OC(=O)/C=C/C(=O)N4CCCCC4)C=CC(=O)[C@]35C)[C@]12O
HCT-116
  IC50: 0.16 µM
MCF7
  IC50: 0.61 µM
HepG2
  IC50: 0.31 µM
HT-29 [5]
  IC50: 0.37 µM

## CC(=O)O[C@H]1C=C([C@H](C)[C@H]2CC(C)=C(C)C(=O)O2)[C@@]2(C)CC[C@H]3[C@@H](C[C@H]4O[C@]45[C@@H](OC(=O)N(C)C)C=CC(=O)[C@]35C)[C@]12O
HCT-116
  IC50: 0.67 µM
MCF7
  IC50: 2.1 µM
HepG2
  IC50: 1.06 µM
HT-29 [5]
  IC50: 1.01 µM

## COC(=O)O[C@H]1C=CC(=O)[C@]2(C)[C@H]3CC[C@]4(C)C([C@H](C)[C@H]5CC(C)=C(C)C(=O)O5)=C[C@H](OC(C)=O)[C@@]4(O)[C@@H]3C[C@H]3O[C@]132
HCT-116
  IC50: 1.95 µM
MCF7
  IC50: 4.33 µM
HepG2
  IC50: 2.81 µM
HT-29 [5]
  IC50: 1.79 µM

## CC(=O)O[C@H]1C=C([C@H](C)[C@H]2CC(C)=C(C)C(=O)O2)[C@@]2(C)CC[C@H]3[C@@H](C[C@H]4O[C@]45C(=O)C=CC(=O)[C@]35C)[C@]12O
HCT-116
  IC50: 3.11 µM
MCF7
  IC50: > 20 µM
HepG2
  IC50: 6.05 µM
HT-29 [5]
  IC50: 3.5 µM

## CC(=O)O[C@H]1C=C([C@H](C)[C@H]2CC(C)=C(C)C(=O)O2)[C@@]2(C)CC[C@H]3[C@@H](C[C@H]4O[C@]45[C@@H](O)C(N(C)CC(=O)O)CC(=O)[C@]35C)[C@]12O (stereo partly specified)
HCT-116
  IC50: > 20 µM
MCF7
  IC50: > 20 µM
HepG2
  IC50: > 20 µM
HT-29 [5]
  IC50: > 20 µM

## CC(=O)O[C@H]1C=C([C@H](C)[C@H]2CC(C)=C(C)C(=O)O2)[C@@]2(C)CC[C@H]3[C@@H](C[C@H]4O[C@]45[C@@H](OC(=O)CCc4ccccc4)C=CC(=O)[C@]35C)[C@]12O
HCT-116
  IC50: 5.84 µM
MCF7
  IC50: 8.18 µM
HepG2
  IC50: 5.76 µM
HT-29 [5]
  IC50: 4.05 µM

## CC(=O)O[C@H]1C=C([C@H](C)[C@H]2CC(C)=C(C)C(=O)O2)[C@@]2(C)CC[C@H]3[C@@H](C[C@H]4O[C@]45[C@@H](OC(=O)/C=C/c4cccc(C(F)(F)F)c4)C=CC(=O)[C@]35C)[C@]12O
HCT-116
  IC50: 0.65 µM
MCF7
  IC50: 1.39 µM
HepG2
  IC50: 0.42 µM
HT-29 [5]
  IC50: 0.81 µM

## CC(=O)O[C@H]1C=C([C@H](C)[C@H]2CC(C)=C(C)C(=O)O2)[C@@]2(C)CC[C@H]3[C@@H](C[C@H]4O[C@]45[C@@H](OC(=O)/C=C/c4ccccc4)C=CC(=O)[C@]35C)[C@]12O
HCT-116
  IC50: 1.23 µM
MCF7
  IC50: 1.71 µM
HepG2
  IC50: 0.7 µM
HT-29 [5]
  IC50: 0.77 µM

## CC(=O)O[C@H]1[C@@H]2O[C@]2([C@H](C)[C@H]2CC(C)=C(C)C(=O)O2)[C@@]2(C)CC[C@H]3[C@@H](C[C@H]4O[C@]45[C@@H](O)C=CC(=O)[C@]35C)[C@]12O
HCT-116
  IC50: 5.04 µM
MCF7
  IC50: 9.36 µM
HepG2
  IC50: 4.66 µM
HT-29 [5]
  IC50: 4.55 µM

— ChEMBL document CHEMBL4665792 (J Med Chem, 2020)
